Data on three compounds can be found in patent publication US6737511B1 (priority 1999, dated 2004).

In one test the test system is HeLa cells. The format is cell-based, human. The settings on record: chloroquine 10 μM.
In a further test the test system is J774 cells. It counts as cell-based.
Another test has as its system Cos-7 cells. It counts as cell-based, monkey.

On to `CCN(CC)CCCC(C)Nc1ccnc2cc(Cl)ccc12` (stereo not shown) [Chloroquine], for which the “effect on Bcl-xL-DTR inhibition of poliovirus-induced cell death” value in the test on HeLa cells is recorded as “did not block the activity of Bcl-xL-DTR to inhibit poliovirus-induced cell death”.

As to `CN[C@@H]1C[C@H]2O[C@@](C)([C@@H]1OC)n1c3ccccc3c3c4c(c5c6ccccc6n2c5c31)C(=O)NC4` [STS, staurosporine], the “apoptosis induced in J774 cells” value in the test with J774 cells is reported as “died by apoptosis over the following 36 hours”. Further, in the test with Cos-7 cells, the “Cell death (%)” value was determined as 24%.

For the compound brefeldin A, the “effect on anti-apoptosis activity of Bcl-xL-DTR” value in the test on Cos-7 cells is recorded as “does block the anti-apoptosis activity of Bcl-xL-DTR”.
